Reference: ChEMBL document CHEMBL1141122, “Receptor flexibility in de novo ligand design and docking” (J Med Chem, 2005)

Columns and labels:
Interstitial collagenase [1] = molecular target: T1, Interstitial collagenase (Homo sapiens, UniProt P03956); assay: Inhibitory concentration against (MMP-1) matrix metalloprotease-1
T1 sequence (P03956 whole entry): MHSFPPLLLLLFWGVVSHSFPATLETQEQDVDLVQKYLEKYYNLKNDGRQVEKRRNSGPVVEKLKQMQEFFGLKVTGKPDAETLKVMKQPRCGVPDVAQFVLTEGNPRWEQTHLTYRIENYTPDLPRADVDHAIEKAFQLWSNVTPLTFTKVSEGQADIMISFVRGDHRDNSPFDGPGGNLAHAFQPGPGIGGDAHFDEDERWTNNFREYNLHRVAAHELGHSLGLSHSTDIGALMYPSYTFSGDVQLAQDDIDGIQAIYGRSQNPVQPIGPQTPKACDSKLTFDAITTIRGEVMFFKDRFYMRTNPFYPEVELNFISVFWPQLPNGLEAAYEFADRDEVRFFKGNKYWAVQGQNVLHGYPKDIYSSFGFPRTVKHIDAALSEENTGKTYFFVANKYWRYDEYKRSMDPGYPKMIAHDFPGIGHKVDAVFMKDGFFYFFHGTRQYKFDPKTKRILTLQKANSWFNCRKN

Interstitial collagenase [2] = molecular target: T1, Interstitial collagenase; assay: Binding affinity towards (MMP-1) matrix metalloprotease-1

Molecule `O=C1CC=C2C=CC=C(C(=O)NCC(=O)NO)N2C1` has an IC50 (Interstitial collagenase [1]) of 1.3 nM.

`O=C(CCC(=O)c1ccc(Oc2ccc(Cl)cc2)cc1)NO` gave a Ki (Interstitial collagenase [2]) of 70 nM.

With `O=C(CNC(=O)c1ccc(Oc2ccc(Cl)cc2)cc1)NO` the Ki (Interstitial collagenase [2]) was 70 nM.

`O=C(CCS(=O)(=O)c1ccc(Oc2ccccc2)cc1)NO` gave an IC50 (Interstitial collagenase [1]) of 22 nM.

Molecule `CC#COc1ccc(C(=O)CCC(=O)NO)cc1` has an IC50 (Interstitial collagenase [1]) of 121 nM.

Molecule `CC#COc1ccc(S(=O)(=O)CCC(=O)NO)cc1` has an IC50 (Interstitial collagenase [1]) of 121 nM.

For `COc1ccc(C(=O)CCC(=O)NO)cc1`, the Ki (Interstitial collagenase [2]) was 33 nM.

`O=C1CC=C2C=CC=C(S(=O)(=O)CCC(=O)NO)N2C1` was tested, and the IC50 (Interstitial collagenase [1]) was 1.3 nM.

Work on `O=C(CCC(=O)N1CCC(Oc2ccc(-n3ccnc3)cc2)CC1)NO` yielded a Ki (Interstitial collagenase [2]) of 224 nM.

For `O=C(CCC(=O)c1ccc(Oc2ccncc2)cc1)NO`, the Ki (Interstitial collagenase [2]) was 8.2 nM.

Molecule `Cc1cc(F)ccc1COc1ccc(C(=O)CCC(=O)NO)cc1` has an IC50 (Interstitial collagenase [1]) of 10 nM.

In the case of `O=C(CNS(=O)(=O)c1ccc(Oc2ccc(Cl)cc2)cc1)NO`, the Ki (Interstitial collagenase [2]) is reported as 70 nM.

For `CCCCOc1ccc(S(=O)(=O)NCC(=O)NO)cc1`, the IC50 (Interstitial collagenase [1]) was 920 nM.

Molecule `Cc1cc(F)ccc1COc1ccc(S(=O)(=O)CCC(=O)NO)cc1` has an IC50 (Interstitial collagenase [1]) of 10 nM.

Work on `O=C(CCS(=O)(=O)c1ccc(Oc2ccc(Cl)cc2)cc1)NO` yielded a Ki (Interstitial collagenase [2]) of 70 nM.

`CCCCOc1ccc(S(=O)(=O)CCC(=O)NO)cc1` was tested, and the IC50 (Interstitial collagenase [1]) was 920 nM.

`O=C(CCS(=O)(=O)c1ccc(C(F)(F)F)cc1)NO` was tested, and the Ki (Interstitial collagenase [2]) was 3 nM.

Work on `CC#COc1ccc(C(=O)NCC(=O)NO)cc1` yielded an IC50 (Interstitial collagenase [1]) of 121 nM.

For `O=C(CCS(=O)(=O)N1CCC(Oc2ccc(-n3ccnc3)cc2)CC1)NO`, the Ki (Interstitial collagenase [2]) was 224 nM.

Molecule `O=C(CNC(=O)c1ccc(Oc2ccncc2)cc1)NO` has a Ki (Interstitial collagenase [2]) of 8.2 nM.

`Cc1cc(F)ccc1COc1ccc(S(=O)(=O)NCC(=O)NO)cc1` showed an IC50 (Interstitial collagenase [1]) of 10 nM.

Molecule `CCCCOc1ccc(C(=O)NCC(=O)NO)cc1` has an IC50 (Interstitial collagenase [1]) of 920 nM.

`O=C(CNS(=O)(=O)N1CCC(Oc2ccc(-n3ccnc3)cc2)CC1)NO` gave a Ki (Interstitial collagenase [2]) of 224 nM.

In the case of `COc1ccc(S(=O)(=O)CCC(=O)NO)cc1`, the Ki (Interstitial collagenase [2]) is reported as 33 nM.

For `O=C(CNS(=O)(=O)c1ccc(Oc2ccccc2)cc1)NO`, the IC50 (Interstitial collagenase [1]) was 22 nM.

`O=C(CCC(=O)c1ccc(Oc2ccccc2)cc1)NO` showed an IC50 (Interstitial collagenase [1]) of 22 nM.

Work on `O=C(CNS(=O)(=O)c1ccc(Oc2ccncc2)cc1)NO` yielded a Ki (Interstitial collagenase [2]) of 8.2 nM.

`O=C(CCS(=O)(=O)c1ccc(Oc2ccncc2)cc1)NO` gave a Ki (Interstitial collagenase [2]) of 8.2 nM.

In the case of `O=C(CNC(=O)c1ccc(Oc2ccccc2)cc1)NO`, the IC50 (Interstitial collagenase [1]) is reported as 22 nM.

`COc1ccc(C(=O)NCC(=O)NO)cc1` showed a Ki (Interstitial collagenase [2]) of 33 nM.

With `CCCCOc1ccc(C(=O)CCC(=O)NO)cc1` the IC50 (Interstitial collagenase [1]) was 920 nM.

`O=C(CNC(=O)c1ccc(C(F)(F)F)cc1)NO` gave a Ki (Interstitial collagenase [2]) of 3 nM.

Molecule `Cc1cc(F)ccc1COc1ccc(C(=O)NCC(=O)NO)cc1` has an IC50 (Interstitial collagenase [1]) of 10 nM.

In the case of `CC#COc1ccc(S(=O)(=O)NCC(=O)NO)cc1`, the IC50 (Interstitial collagenase [1]) is reported as 121 nM.

Molecule `O=C(CNS(=O)(=O)c1ccc(C(F)(F)F)cc1)NO` has a Ki (Interstitial collagenase [2]) of 3 nM.

For `O=C(CCC(=O)c1ccc(C(F)(F)F)cc1)NO`, the Ki (Interstitial collagenase [2]) was 3 nM.

`O=C(CNC(=O)N1CCC(Oc2ccc(-n3ccnc3)cc2)CC1)NO` showed a Ki (Interstitial collagenase [2]) of 224 nM.

For `O=C1CC=C2C=CC=C(S(=O)(=O)NCC(=O)NO)N2C1`, the IC50 (Interstitial collagenase [1]) was 1.3 nM.

Molecule `O=C1CC=C2C=CC=C(C(=O)CCC(=O)NO)N2C1` has an IC50 (Interstitial collagenase [1]) of 3 nM.
